Measurements taken from PubChem BioAssay AID180 (DTP/NCI, 2004).
Values joined by “and” are separate entries in the source; they are usually repeats but may differ in a detail not shown here. Equal values may be shown once.

System: BDF1 mice, Adenocarcinoma 755 s.c., tumor weight T/C
Experiment: NCI In Vivo Anticancer Drug Screen. Data for tumor model Adenocarcinoma 755 (subcutaneous) in B6D2F1 (BDF1) mice
Settings: endpoint: mean tumor weight, higher = larger tumour
Summary of the method: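 Transplantable tumor implanted; mice dosed with compound or vehicle; survival or tumor size recorded; ratio of treated to vehicle control reported.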

[1] = dose: 12.0 mg/kg/injection, schedule: Q01DX011 (ip), vehicle: methylcellulose (MC)
[2] = dose: 15.0 mg/kg/injection, schedule: Q01DX011 (ip), vehicle: carboxymethylcellulose (CMC)
[3] = dose: 30.0 mg/kg/injection, schedule: Q01DX011 (ip), vehicle: carboxymethylcellulose (CMC)
[4] = dose: 60.0 mg/kg/injection, schedule: Q01DX011 (ip), vehicle: carboxymethylcellulose (CMC)
[5] = dose: 200.0 mg/kg/injection, schedule: Q01DX011 (ip), vehicle: carboxymethylcellulose (CMC)
[6] = dose: 50.0 mg/kg/injection, schedule: Q01DX011 (ip), vehicle: carboxymethylcellulose (CMC)

With `S=c1nc[nH]c2c1ncn2C1CCCC1` the T/C (dose: 3.0 mg/kg/injection, schedule: Q01DX011 (ip), vehicle: methylcellulose (MC)) was 69 % of control, the T/C (dose: 6.0 mg/kg/injection, schedule: Q01DX011 (ip), vehicle: methylcellulose (MC)) was 50 % of control and the T/C [1] was 22 % of control. The T/C [2] was 12 % of control and 17 % of control, the T/C (dose: 15.0 mg/kg/injection, schedule: Q01DX011 (oral), vehicle: carboxymethylcellulose (CMC)) was 13 % of control and the T/C (dose: 25.0 mg/kg/injection, schedule: Q01DX011 (ip), vehicle: methylcellulose (MC)) was 4 % of control and 5 % of control. The T/C [3] was 6 % of control and 10 % of control, the T/C (dose: 30.0 mg/kg/injection, schedule: Q01DX011 (oral), vehicle: carboxymethylcellulose (CMC)) was 7 % of control and the T/C [4] was 2 % of control and 3 % of control. The T/C (dose: 60.0 mg/kg/injection, schedule: Q01DX011 (oral), vehicle: carboxymethylcellulose (CMC)) was 4 % of control, the T/C (dose: 120.0 mg/kg/injection, schedule: Q01DX011 (oral), vehicle: carboxymethylcellulose (CMC)) was 3 % of control and the T/C (dose: 162.0 mg/kg/injection, schedule: Q01DX001 (ip), vehicle: carboxymethylcellulose (CMC)) was 94 % of control. For the same compound, the T/C (dose: 325.0 mg/kg/injection, schedule: Q01DX001 (ip), vehicle: carboxymethylcellulose (CMC)) was 7 % of control and the T/C (dose: 1300.0 mg/kg/injection, schedule: Q01DX001 (ip), vehicle: carboxymethylcellulose (CMC)) was 1 % of control.
With `CC(Nc1ncnc2nc[nH]c12)C(=O)O` (stereo unspecified) the T/C (dose: 25.0 mg/kg/injection, schedule: Q01DX011 (ip), vehicle: saline) was 114 % of control, the T/C (dose: 75.0 mg/kg/injection, schedule: Q01DX011 (ip), vehicle: saline) was 86 % of control and the T/C (dose: 225.0 mg/kg/injection, schedule: Q01DX011 (ip), vehicle: saline) was 20 % of control.
With `S=c1nc[nH]c2c1ncn2C1CCCCO1` (stereo unspecified) the T/C (dose: 5.0 mg/kg/injection, schedule: Q01DX011 (ip), vehicle: carboxymethylcellulose (CMC)) was 29 % of control and the T/C (dose: 10.0 mg/kg/injection, schedule: Q01DX011 (ip), vehicle: carboxymethylcellulose (CMC)) was 16 % of control.
In the case of `CC(C)CCn1cnc2c(SCc3ccccc3F)nc(N)nc21`, the T/C (dose: 30.0 mg/kg/injection, schedule: Q01DX011 (ip), vehicle: methylcellulose (MC)) is reported as 62 % of control, the T/C (dose: 100.0 mg/kg/injection, schedule: Q01DX011 (ip), vehicle: methylcellulose (MC)) is reported as 65 % of control and the T/C (dose: 300.0 mg/kg/injection, schedule: Q01DX011 (ip), vehicle: methylcellulose (MC)) is reported as 10 % of control.
In the case of `O=c1[nH]c(Br)nc2nc[nH]c12`, the T/C [3] is reported as 99 % of control, the T/C [4] is reported as 98 % of control and the T/C (dose: 120.0 mg/kg/injection, schedule: Q01DX011 (ip), vehicle: carboxymethylcellulose (CMC)) is reported as 81 % of control. For the same compound, the T/C (dose: 240.0 mg/kg/injection, schedule: Q01DX011 (ip), vehicle: carboxymethylcellulose (CMC)) was 92 % of control.
In the case of `Cc1ccc(C(=O)OCC2OC(n3cnc4c(=S)nc(N)[nH]c43)C(OC(=O)c3ccc(C)cc3)C2OC(=O)c2ccc(C)cc2)cc1` (stereo unspecified), the T/C (dose: 100.0 mg/kg/injection, schedule: Q01DX011 (ip), vehicle: carboxymethylcellulose (CMC)) is reported as 81 % of control and the T/C [5] is reported as 4 % of control and 12 % of control.
`Nc1nc2c(nnn2C2OC(CO)C(O)C2O)c(=O)[nH]1` (stereo unspecified) was tested, and the T/C [1] was 38 % of control.
In the case of `C[C@]1(O)CC[C@H]2[C@@H]3CC[C@@H]4C[C@H](O)CC[C@]4(C)[C@@]3(F)[C@@H](O)C[C@@]21C`, the T/C (dose: 25.0 mg/kg/injection, schedule: Q01DX011 (sc), vehicle: steriod suspending solution) is reported as 73 % of control, the T/C (dose: 200.0 mg/kg/injection, schedule: Q01DX011 (sc), vehicle: steriod suspending solution) is reported as 90 % of control and the T/C (dose: 400.0 mg/kg/injection, schedule: Q01DX011 (sc), vehicle: steriod suspending solution) is reported as 87 % of control.
`Cc1cc2c(cc1C)NC(C)CC(=O)N2` (stereo unspecified) was tested, and the T/C [6] was 89 % of control, the T/C (dose: 50.0 mg/kg/injection, schedule: Q01DX011 (ip), vehicle: other) was 80 % of control and the T/C (dose: 100.0 mg/kg/injection, schedule: Q01DX011 (ip), vehicle: other) was 48 % of control. The T/C [5] was 84 % of control.
For `CN(C)[C@@H]1C(=O)C(C(=O)NCNc2nc(=S)c3[nH]cnc3[nH]2)=C(O)[C@@]2(O)C(=O)C3=C(O)c4c(O)cccc4[C@@](C)(O)[C@H]3C[C@@H]12`, the T/C (dose: 4.0 mg/kg/injection, schedule: Q01DX011 (ip), vehicle: carboxymethylcellulose (CMC)) was 52 % of control, the T/C (dose: 8.0 mg/kg/injection, schedule: Q01DX011 (ip), vehicle: carboxymethylcellulose (CMC)) was 26 % of control and the T/C [2] was 2 % of control. For the same compound, the T/C [3] was 1 % of control and the T/C [6] was 1 % of control.
With `CCOC(N)=O` the T/C (dose: 62.5 mg/kg/injection, schedule: Q#A X022 (ip), vehicle: saline) was 52 % of control, the T/C (dose: 62.62 mg/kg/injection, schedule: Q01DX011 (ip), vehicle: carboxymethylcellulose (CMC)) was 79 % of control and the T/C (dose: 102.5 mg/kg/injection, schedule: Q01DX011 (ip), vehicle: carboxymethylcellulose (CMC)) was 94 % of control. The T/C (dose: 125.0 mg/kg/injection, schedule: Q01DX001 (ip), vehicle: saline) was 121 % of control, the T/C (dose: 125.0 mg/kg/injection, schedule: Q01DX006 (iv), vehicle: saline) was 75 % of control and the T/C (dose: 125.0 mg/kg/injection, schedule: Q01DX011 (im), vehicle: saline) was 83 % of control. For the same compound, the T/C (dose: 125.0 mg/kg/injection, schedule: Q01DX011 (ip), vehicle: methylcellulose (MC)) was 85 % of control, the T/C (dose: 125.0 mg/kg/injection, schedule: Q01DX011 (ip), vehicle: saline) was 68 % of control and the T/C (dose: 125.0 mg/kg/injection, schedule: Q01DX011 (sc), vehicle: saline) was 96 % of control. The T/C (dose: 125.0 mg/kg/injection, schedule: Q07DX002 (ip), vehicle: saline) was 104 % of control, the T/C (dose: 125.0 mg/kg/injection, schedule: Q#A X022 (ip), vehicle: saline) was 59 % of control and the T/C (dose: 125.25 mg/kg/injection, schedule: Q01DX011 (ip), vehicle: carboxymethylcellulose (CMC)) was 63 % of control. For the same compound, the T/C (dose: 200.4 mg/kg/injection, schedule: Q01DX011 (ip), vehicle: carboxymethylcellulose (CMC)) was 41 % of control and 50 % of control, the T/C (dose: 205.0 mg/kg/injection, schedule: Q01DX011 (ip), vehicle: carboxymethylcellulose (CMC)) was 116 % of control and the T/C (dose: 250.0 mg/kg/injection, schedule: Q01DX001 (ip), vehicle: saline) was 92 % of control and 93 % of control. The T/C (dose: 250.0 mg/kg/injection, schedule: Q01DX006 (iv), vehicle: saline) was 74 % of control, the T/C (dose: 250.0 mg/kg/injection, schedule: Q01DX011 (im), vehicle: saline) was 65 % of control and the T/C (dose: 250.0 mg/kg/injection, schedule: Q01DX011 (ip), vehicle: methylcellulose (MC)) was 53 % of control. The T/C (dose: 250.0 mg/kg/injection, schedule: Q01DX011 (ip), vehicle: saline) was 51 % of control, the T/C (dose: 250.0 mg/kg/injection, schedule: Q01DX011 (oral), vehicle: saline) was 69 % of control and the T/C (dose: 250.0 mg/kg/injection, schedule: Q01DX011 (sc), vehicle: saline) was 67 % of control. The T/C (dose: 250.0 mg/kg/injection, schedule: Q07DX002 (ip), vehicle: saline) was 85 % of control, the T/C (dose: 250.0 mg/kg/injection, schedule: Q#A X022 (ip), vehicle: saline) was 9 % of control and the T/C (dose: 328.0 mg/kg/injection, schedule: Q01DX011 (ip), vehicle: carboxymethylcellulose (CMC)) was 41 % of control and 52 % of control. The T/C (dose: 375.0 mg/kg/injection, schedule: Q03DX004 (ip), vehicle: saline) was 59 % of control, the T/C (dose: 500.0 mg/kg/injection, schedule: Q01DX001 (ip), vehicle: saline) was 110 % of control and 85 % of control and the T/C (dose: 500.0 mg/kg/injection, schedule: Q01DX006 (iv), vehicle: saline) was 38 % of control. The T/C (dose: 500.0 mg/kg/injection, schedule: Q01DX011 (im), vehicle: saline) was 32 % of control, the T/C (dose: 500.0 mg/kg/injection, schedule: Q01DX011 (ip), vehicle: methylcellulose (MC)) was 33 % of control and the T/C (dose: 500.0 mg/kg/injection, schedule: Q01DX011 (ip), vehicle: saline) was 19 % of control. For the same compound, the T/C (dose: 500.0 mg/kg/injection, schedule: Q01DX011 (oral), vehicle: saline) was 20 % of control, the T/C (dose: 500.0 mg/kg/injection, schedule: Q01DX011 (sc), vehicle: saline) was 42 % of control and the T/C (dose: 500.0 mg/kg/injection, schedule: Q07DX002 (ip), vehicle: saline) was 83 % of control. For the same compound, the T/C (dose: 501.0 mg/kg/injection, schedule: Q01DX011 (ip), vehicle: carboxymethylcellulose (CMC)) was 17 % of control and 27 % of control, the T/C (dose: 546.6 mg/kg/injection, schedule: Q01DX011 (ip), vehicle: carboxymethylcellulose (CMC)) was 22 % of control and 23 % of control and the T/C (dose: 750.0 mg/kg/injection, schedule: Q03DX004 (ip), vehicle: saline) was 54 % of control. For the same compound, the T/C (dose: 820.0 mg/kg/injection, schedule: Q01DX011 (ip), vehicle: carboxymethylcellulose (CMC)) was 10 % of control and 20 % of control, the T/C (dose: 1000.0 mg/kg/injection, schedule: Q01DX001 (ip), vehicle: saline) was 49 % of control and 64 % of control and the T/C (dose: 1000.0 mg/kg/injection, schedule: Q01DX006 (iv), vehicle: saline) was 21 % of control. For the same compound, the T/C (dose: 1000.0 mg/kg/injection, schedule: Q07DX002 (ip), vehicle: saline) was 69 % of control.
